Tests used:
resting platelets = assay: Platelet aggregation induced by peptide in resting washed platelets (activation); format: cell-based, human (healthy volunteers); conditions: for Activation: platelet aggregation in resting platelets after 6 minutes incubation with peptide, pal-peptides 20 μM, tat-peptides 50 μM, optical density, aggregometer, mean, n>=3; for Activation / Activation, donor 20 08 13 / Activation, donor 14 06 13 / Activation, 5μM / Activation, 20μM: unit assumed; for Aggregation before TRAP activation, donor a: replicate donor a; for Aggregation before TRAP activation, donor a / Aggregation before TRAP activation, donor b / Aggregation before TRAP activation, donor c / Aggregation before TRAP activation, donor d / Aggregation before TRAP activation, donor e: pal 20 μM, tat 50 μM; for Aggregation before TRAP activation, donor b: replicate donor b; for Aggregation before TRAP activation, donor c: replicate donor c; for Aggregation before TRAP activation, donor d: replicate donor d; for Aggregation before TRAP activation, donor e: replicate donor e; for Activation, donor 20 08 13: replicate 20_08_13; for Activation, donor 20 08 13 / Activation, donor 22_08_13_DONOR1 / Activation, donor 22_08_13_DONOR2 / Activation, donor 14 06 13 / Activation, donor 18_06_13 / Activation, donor 20_06_13: SDC4 peptides and controls, 20 μM; for Activation, donor 22_08_13_DONOR1: replicate 22_08_13_DONOR1; for Activation, donor 22_08_13_DONOR2: replicate 22_08_13_DONOR2; for Activation, donor 14 06 13: replicate 14_06_13; for Activation, donor 18_06_13: replicate 18_06_13; for Activation, donor 18_06_13 / Activation, donor 20_06_13: in % (unit assumed); for Activation, donor 20_06_13: replicate 20_06_13; for Activation, 5μM / Activation, 20μM: S3 Table, n=3; for Activation, 5μM: peptide 5 μM; for Activation, 20μM: peptide 20 μM
Procedure: (§1) Blood was drawn from healthy volunteers into a syringe containing a final volume of 15% Acid Citrate Dextrose (ACD). The blood/ACD mixture was then aliquoted into 15 ml Cellstar tubes, at volumes of 5ml per tube, and centrifuged at 150 rcf for 10 minutes to obtain platelet rich plasma (PRP). PRP was then transferred to a 50ml tube using a pipette. The pH was then adjusted to 6.5. Prostaglandin (PGE1) was then added with a final concentration of 1μM. The PRP was then centrifuged at 750 rcf. After centrifugation the platelet poor plasma (PPP) was discarded and the pellet was resuspended in buffer A (6 mM dextrose, 130 mM NaCl, 9 mM NaHCO3, 10 mM sodium citrate, 10 mM Tris base, 3 mM KCl, 0.81 mM KH2PO4 and 0.9 mM MgCl26H2O, pH 7.4). A platelet concentration of 3x10^5/μl or 1x10^6/μl was obtained by dilution depending on the experiment in which they were used. Platelets were left to rest for 45 minutes and supplemented with 1.8mM calcium chloride prior to use.
(§2) A platelet concentration of 3x10^5 /μl was used when performing standard aggregations and a concentration of 1x10^6 /μl was used for sample preparation for western blot analysis. The extent of platelet aggregation was measured by quantifying the optical density of the samples using the Bio-Data PAP-8 aggregometer (platelet aggregation profiler, Horsham, PA, USA). A temperature of 37°C was maintained and samples were stirred using magnets spinning at 1100 rpm. 200 μl of washed platelets was added to each aggregation tube. Different volumes of buffer, peptide and TRAP were added to achieve the desired concentrations. Peptide/buffer was added to each well after two minutes. TRAP, with a final concentration depending on the experiment, was added 6 minutes later and data was collected for an additional 7 minutes.

TRAP-activated platelets = assay: Inhibition of TRAP-induced platelet aggregation after pre-incubation with peptide; format: cell-based, human (healthy volunteers); conditions: for Aggregation after TRAP activation, donor a: replicate donor a; for Aggregation after TRAP activation, donor a / Aggregation after TRAP activation, donor b / Aggregation after TRAP activation, donor c / Aggregation after TRAP activation, donor d / Aggregation after TRAP activation, donor e: pal 20 μM, tat 50 μM; for Aggregation after TRAP activation, donor b: replicate donor b; for Aggregation after TRAP activation, donor c: replicate donor c; for Aggregation after TRAP activation, donor d: replicate donor d; for Aggregation after TRAP activation, donor e: replicate donor e; for Summary of effects of SDC4-derived palmitylated peptides and scrambled controls, 20μM: S2 Table B / S2 Fig, activation of resting platelets and inhibition of aggregation induced by 4 μM TRAP, in words; for Inhibition, donor 20_08_13: replicate 20_08_13; for Inhibition, donor 14_06_13: replicate 14_06_13; for Inhibition, donor 18_06_13: replicate 18_06_13; for Inhibition, donor 20_06_13: replicate 20_06_13
Procedure: as §1, §2

[1] = platelet aggregation induced by 4 μM TRAP in platelets pre-incubated with peptide (low value = inhibition), pal-peptides 20 μM, tat-peptides 50 μM, mean, n>=3
[2] = replicate 22_08_13_DONOR1, peptide 20 μM, TRAP 4 μM
[3] = replicate 22_08_13_DONOR2, peptide 20 μM, TRAP 4 μM
[4] = S3 Table, peptide 5 μM, aggregation after TRAP, n=3
[5] = S3 Table, peptide 20 μM, aggregation after TRAP, n=3

## GIESMSQDTEVRSRVVGGS-tat [PTPN1-tat, PTPN1 peptide with C-terminal tat]
Resting platelets
  Activation: 3%
  Aggregation before TRAP activation, donor a: 3
  Aggregation before TRAP activation, donor b: 4
  Aggregation before TRAP activation, donor c: 5
  Aggregation before TRAP activation, donor d: 4
  Aggregation before TRAP activation, donor e: 3
TRAP-activated platelets; [1]
  Platelet aggregation remaining after TRAP (low = inhibition): 77
TRAP-activated platelets; TRAP 4 μM
  Aggregation after TRAP activation, donor a: 73
  Aggregation after TRAP activation, donor b: 76
  Aggregation after TRAP activation, donor c: 83
  Aggregation after TRAP activation, donor d: 75
  Aggregation after TRAP activation, donor e: 79

## IGLPKKKYK [pal-SDC4_middle Control 2, scrambled control of pal-SDC4_middle, reference compound]
Resting platelets
  Activation, donor 20 08 13: 12%
  Activation, donor 22_08_13_DONOR1: 17
  Activation, donor 22_08_13_DONOR2: 12
TRAP-activated platelets
  Summary of effects of SDC4-derived palmitylated peptides and scrambled controls, 20μM: Inhibitor and mild activator
TRAP-activated platelets; peptide 20 μM, TRAP 4 μM
  Inhibition, donor 20_08_13: 40
TRAP-activated platelets; [2]
  Platelet aggregation remaining after TRAP (low = inhibition): 19
TRAP-activated platelets; [3]
  Platelet aggregation remaining after TRAP (low = inhibition): 46

## KIKGPKLKY [pal-SDC4_middle Control 1, scrambled control of pal-SDC4_middle, reference compound]
Resting platelets
  Activation, donor 14 06 13: 4%
  Activation, donor 18_06_13: 4
  Activation, donor 20_06_13: 0
  Activation, donor 20 08 13: 5%
  Activation, donor 22_08_13_DONOR1: 6
  Activation, donor 22_08_13_DONOR2: 5
TRAP-activated platelets
  Summary of effects of SDC4-derived palmitylated peptides and scrambled controls, 20μM: Inhibitor and mild activator
TRAP-activated platelets; peptide 20 μM, TRAP 4 μM
  Inhibition, donor 14_06_13: 8
  Inhibition, donor 18_06_13: 9
  Inhibition, donor 20_06_13: 2
  Inhibition, donor 20_08_13: 8
TRAP-activated platelets; [2]
  Platelet aggregation remaining after TRAP (low = inhibition): 5
TRAP-activated platelets; [3]
  Platelet aggregation remaining after TRAP (low = inhibition): 10

## KLSQLTSLLSSIE-tat [INPP5D-tat, INPP5D peptide with C-terminal tat]
Resting platelets
  Activation: 4%
  Aggregation before TRAP activation, donor a: 4
  Aggregation before TRAP activation, donor b: 8
  Aggregation before TRAP activation, donor c: 2
  Aggregation before TRAP activation, donor d: 3
  Aggregation before TRAP activation, donor e: 4
TRAP-activated platelets; [1]
  Platelet aggregation remaining after TRAP (low = inhibition): 74
TRAP-activated platelets; TRAP 4 μM
  Aggregation after TRAP activation, donor a: 70
  Aggregation after TRAP activation, donor b: 77
  Aggregation after TRAP activation, donor c: 76
  Aggregation after TRAP activation, donor d: 75
  Aggregation after TRAP activation, donor e: 73

## MGYRKEDKDKS [pal-SDC4_JM Control 2, scrambled control of pal-SDC4_JM, reference compound]
Resting platelets
  Activation, donor 20 08 13: 2%
  Activation, donor 22_08_13_DONOR1: 1
  Activation, donor 22_08_13_DONOR2: 2
TRAP-activated platelets
  Summary of effects of SDC4-derived palmitylated peptides and scrambled controls, 20μM: Inhibitor
TRAP-activated platelets; peptide 20 μM, TRAP 4 μM
  Inhibition, donor 20_08_13: 4
TRAP-activated platelets; [2]
  Platelet aggregation remaining after TRAP (low = inhibition): 3
TRAP-activated platelets; [3]
  Platelet aggregation remaining after TRAP (low = inhibition): 14

## NSDTPPRPDRLPL-tat [PTPN12-tat, PTPN12 peptide with C-terminal tat]
Resting platelets
  Activation: 3%
  Aggregation before TRAP activation, donor a: 3
  Aggregation before TRAP activation, donor b: 4
  Aggregation before TRAP activation, donor c: 4
  Aggregation before TRAP activation, donor d: 4
  Aggregation before TRAP activation, donor e: 3
TRAP-activated platelets; [1]
  Platelet aggregation remaining after TRAP (low = inhibition): 75
TRAP-activated platelets; TRAP 4 μM
  Aggregation after TRAP activation, donor a: 73
  Aggregation after TRAP activation, donor b: 76
  Aggregation after TRAP activation, donor c: 76
  Aggregation after TRAP activation, donor d: 75
  Aggregation after TRAP activation, donor e: 78

## NTYAFKAKEP [pal-KK-SDC4_tail Control 1, scrambled control of pal-KK-SDC4_tail, reference compound]
Resting platelets
  Activation, donor 20 08 13: 3%
  Activation, donor 22_08_13_DONOR1: 1
  Activation, donor 22_08_13_DONOR2: 3
TRAP-activated platelets
  Summary of effects of SDC4-derived palmitylated peptides and scrambled controls, 20μM: No effect
TRAP-activated platelets; peptide 20 μM, TRAP 4 μM
  Inhibition, donor 20_08_13: 70
TRAP-activated platelets; [2]
  Platelet aggregation remaining after TRAP (low = inhibition): 76
TRAP-activated platelets; [3]
  Platelet aggregation remaining after TRAP (low = inhibition): 74

## Pal-KKAPTNEFYA [Pal-KK-SDC4-tail, palmitylated, slightly extended SDC4 tail peptide …]
Resting platelets
  Activation, 5μM: 2%
  Activation, 20μM: 1%
  Activation, donor 14 06 13: 2%
  Activation, donor 18_06_13: -1
  Activation, donor 20_06_13: 2
  Activation, donor 20 08 13: 3%
  Activation, donor 22_08_13_DONOR1: 1
  Activation, donor 22_08_13_DONOR2: 1
TRAP-activated platelets
  Summary of effects of SDC4-derived palmitylated peptides and scrambled controls, 20μM: Inhibitor
TRAP-activated platelets; [4]
  Platelet aggregation remaining after TRAP (low = inhibition): 63
TRAP-activated platelets; [5]
  Platelet aggregation remaining after TRAP (low = inhibition): 36
TRAP-activated platelets; TRAP 2 μM after 6 minutes pre-incubation, 4 μM pal-peptides, 10 μM tat-peptides, mean n = 3
  Aggregation after TRAP, peptide alone 1x (A 1x / B 1x): 64.67
TRAP-activated platelets; TRAP 2 μM after 6 minutes pre-incubation, double concentration of 4 μM (pal) / 10 μM (tat), mean n = 3
  Aggregation after TRAP, peptide alone 2x (A 2x / B 2x): 3
TRAP-activated platelets; peptide 20 μM, TRAP 4 μM
  Inhibition, donor 14_06_13: 65
  Inhibition, donor 18_06_13: 64
  Inhibition, donor 20_06_13: 71
  Inhibition, donor 20_08_13: 4
TRAP-activated platelets; [2]
  Platelet aggregation remaining after TRAP (low = inhibition): 2
TRAP-activated platelets; [3]
  Platelet aggregation remaining after TRAP (low = inhibition): 12

## Pal-LGKKPIYKK-APTNEFYA [pal-SDC4-middle U SDC4-tail, palmitylated chimeric peptide of SDC4 middle and tail regions]
Resting platelets
  Activation, 5μM: 3%
  Activation, 20μM: 2%
  Activation, donor 14 06 13: 3%
  Activation, donor 18_06_13: 3
  Activation, donor 20_06_13: -2
  Activation, donor 20 08 13: 4%
  Activation, donor 22_08_13_DONOR1: 1
  Activation, donor 22_08_13_DONOR2: 4
TRAP-activated platelets; S2 Table A, peptide 20 μM, TRAP 4 μM, mean, n=6
  Aggregation (inhibition effects of syndecan-derived peptides): 5
TRAP-activated platelets; [4]
  Platelet aggregation remaining after TRAP (low = inhibition): 63
TRAP-activated platelets; [5]
  Platelet aggregation remaining after TRAP (low = inhibition): 5
TRAP-activated platelets; peptide 20 μM, TRAP 4 μM
  Inhibition, donor 14_06_13: 5
  Inhibition, donor 18_06_13: 5
  Inhibition, donor 20_06_13: 7
  Inhibition, donor 20_08_13: 6
TRAP-activated platelets; [2]
  Platelet aggregation remaining after TRAP (low = inhibition): 2
TRAP-activated platelets; [3]
  Platelet aggregation remaining after TRAP (low = inhibition): 6
